These results are taken from US12157730B2, “Heteroaryl derivative, method for producing same, and pharmaceutical composition comprising same as effective component” (VORONOI INC., priority 2019, dated 2024).

The target in this assay is T1, Ba/F3 cell EGFR Exon20 ins NPH (Homo sapiens, UniProt P00533, INS773NPH).
T1 construct: expressed in transfected cells; host or cells: Ba/F3
Kind of assay: Ba/F3 cell proliferation suppression, EGFR Exon20 ins NPH. Particulars: GI50 class; Ba/F3 cell line with NPH inserted at Exon20 of EGFR; 72 hours. The class given is cell-based. In outline: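 Growth suppression determined as GI50 following 72 h exposure across 12 concentrations up to 50 um, with viability by luminescent ATP assay (CellTiter-Glo).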

Regarding `C=CC(=O)Nc1cc(Nc2cc(N3OCC[C@@H]3c3ccc(Cl)cc3)ncn2)c(OC)cc1N1CC[C@H](N2CCOCC2)C1` [compound 734, N-(5-((6-((R)-3-(4-chlorophenyl)isoxazolidine-2-yl)pyrimidine-4-yl)amino)-4-methoxy-2-((S)-3-morpholinopyrolidine-1-yl)phenyl)acrylamide], the “Ba/F3 (NPH) Activity” value is reported as “B (50 nM ≤ GI50 < 500 nM)”.
The same measure for `C=CC(=O)Nc1cc(Nc2cc(N3OCC[C@@H]3c3cccc(F)c3Cl)ncn2)c(OC)cc1N1CCC(N2CCN(C3CCC3)CC2)CC1` [Example 192, N-(5-((6-((R)-3-(2-chloro-3-fluorophenyl)isoxazolidine-2-yl)pyrimidine-4-yl)amino)-2-(4-(4-cyclobutylpiperazine-1-yl)piperidine-1-yl)-4-methoxyphenyl) acrylamide]: “A (GI50 < 50 nM)”; for `C=CC(=O)Nc1cc(Nc2cc(N3OCC[C@@H]3c3cccc(Cl)c3)ncn2)c(OC)cc1N1CCN(CC)CC1` [compound 411, N-(5-((6-((R)-3-(3-chlorophenyl)isoxazolidine-2-yl)pyrimidine-4-yl)amino)-2-(4-ethylpiperazine-1-yl)-4-methoxyphenyl) acrylamide]: “A (GI50 < 50 nM)”; for `C#Cc1cccc([C@H]2CCON2c2cc(Nc3cc(NC(=O)C=C)c(N4CCN(CC)CC4)cc3OC)ncn2)c1` [compound 648, N-(2-(4-ethylpiperazine-1-yl)-5-((6-((R)-3-(3-ethynylphenyl)isoxazolidine-2-yl)pyrimidine-4-yl)amino)-4-methoxyphenyl) acrylamide]: “A (GI50 < 50 nM)”.
The same measure for `C=CC(=O)Nc1cc(Nc2cc(N3OCC[C@@H]3c3ccc(Cl)cc3F)ncn2)c(OC)cc1N1CCC(N(C(=O)C=C)C2CCN(C(C)C)CC2)CC1` [compound 402, N-(1-(2-acrylamido-4-((6-((R)-3-(4-chloro-2-fluorophenyl)isoxazolidine-2-yl)pyrimidine-4-yl)amino)-5-methoxyphenyl)piperidine-4-yl)-N-(1-isopropylpiperidine-4-yl)acrylamide]: “A (GI50 < 50 nM)”; for `C=CC(=O)Nc1cc(Nc2cc(N3OCC[C@@H]3c3cc(F)ccc3F)ncn2)c(OC)cc1N1CCC(N2CC3CC2CN3C)CC1` (stereo partly drawn) [compound 877, N-(5-((6-((R)-3-(2,5-difluorophenyl)isoxazolidine-2-yl)pyrimidine-4-yl)amino)-4-methoxy-2-(4-(5-methyl-2,5-diazabicyclo [2.2.1]heptane-2-yl)piperidine-1-yl)phenyl)acrylamide]: “A (GI50 < 50 nM)”; for `C=CC(=O)Nc1cc(Nc2cc(N3OCC[C@@H]3c3cc(F)cc(F)c3)ncn2)c(OC)cc1N1CCC(N2C[C@H](C)O[C@@H](C)C2)CC1` [compound 752, N-(5-((6-((R)-3-(3,5-difluorophenyl)isoxazolidine-2-yl)pyrimidine-4-yl)amino)-2-(4-((2S,6S)-2,6-dimethylmorpholino)piperidine-1-yl)-4-methoxyphenyl) acrylamide]: “A (GI50 < 50 nM)”.
Regarding `C=CC(=O)Nc1cc(Nc2cc(N3OCC[C@@H]3c3ccccc3)ncn2)c(OC)cc1N1CCC(N2CC3CC2CN3C)CC1` (stereo partly drawn) [Example 52, N-(4-methoxy-2-(4-(5-methyl-2,5-diazabicyclo [2.2.1]heptane-2-yl)piperidine-1-yl)-5-((6-((R)-3-phenylisoxazolidine-2-yl)pyrimidine-1-yl)amino)phenyl) acrylamide], the “Ba/F3 (NPH) Activity” value was “A (GI50 < 50 nM)”.
For `C=CC(=O)Nc1cc(Nc2cc(N3OCC[C@@H]3Cc3cccc(Cl)c3Cl)ncn2)c(OC)cc1N1CCC(N2CCN(C3CC3)CC2)CC1` [compound 1009, N-(2-(4-(4-cyclopropylpiperazine-1-yl)piperidine-1-yl)-5-((6-((S)-3-(2,3-dichlorobenzyl)isoxazolidine-2-yl)pyrimidine-4-yl)amino)-4-methoxyphenyl) acrylamide] the value was “A (GI50 < 50 nM)”; for `C=CC(=O)Nc1cc(Nc2cc(N3OCC[C@@H]3c3ccc(Cl)c(F)c3)ncn2)c(OC)cc1N1CCC(N2C[C@H]3C[C@@H]2CN3CC)CC1` [compound 859, N-(5-((6-((R)-3-(4-chloro-3-fluorophenyl)isoxazolidine-2-yl)pyrimidine-4-yl)amino)-2-(4-((1R,4R)-5-ethyl-2,5-diazabicyclo [2.2.1]heptane-2-yl)piperidine-1-yl)-4-methoxyphenyl) acrylamide], “A (GI50 < 50 nM)”.
With `C=CC(=O)Nc1cc(Nc2cc(N3OCC[C@@H]3c3ccc(F)cc3F)ncn2)c(OC)cc1N1CC[C@@H](N(C)C)C1` [compound 376, N-(5-((6-((R)-3-(2,4-difluorophenyl)isoxazolidine-2-yl)pyrimidine-4-yl)amino)-2-((R)-3-(dimethylamino)pyrolidine-1-yl)-4-methoxyphenyl) acrylamide], the “Ba/F3 (NPH) Activity” value is recorded as “A (GI50 < 50 nM)”.
For `C=CC(=O)Nc1cc(Nc2cc(N3OCC[C@@H]3c3cccc(Cl)c3C)ncn2)c(OC)cc1N1CCC(N2C[C@@H](C)O[C@@H](C)C2)CC1` [compound 528, N-(5-((6-((R)-3-(3-chloro-2-methylphenyl)isoxazolidine-2-yl)pyrimidine-4-yl)amino)-2-(4-((2S,6R)-2,6-dimethylmorpholino)piperidine-1-yl)-4-methoxyphenyl) acrylamide] the value was “A (GI50 < 50 nM)”.
As to `C=CC(=O)Nc1cc(Nc2cc(N3OCC[C@@H]3c3ccc(Cl)c(Cl)c3)ncn2)c(OC)cc1N1CCC(N(C)C)CC1` [compound 677, N-(5-((6-((R)-3-(3,4-dichlorophenyl)isoxazolidine-2-yl)pyrimidine-4-yl)amino)-2-(4-(dimethylamino)piperidine-1-yl)-4-methoxyphenyl) acrylamide], the “Ba/F3 (NPH) Activity” value is recorded as “A (GI50 < 50 nM)”.
The same measure for `C=CC(=O)Nc1cc(Nc2cc(N3OCC[C@@H]3c3ccc(F)c(Cl)c3)ncn2)c(OC)cc1N1CCC(N(C)C)CC1` [compound 755, N-(5-((6-((R)-3-(3-chloro-4-fluorophenyl)isoxazolidine-2-yl)pyrimidine-4-yl)amino)-2-(4-(dimethylamino)piperidine-1-yl)-4-methoxyphenyl) acrylamide]: “A (GI50 < 50 nM)”.
The same measure for `C=CC(=O)Nc1cc(Nc2cc(N3OCC[C@@H]3c3c(F)ccc(F)c3F)ncn2)c(OC)cc1N1CCC(N2C[C@H]3C[C@@H]2CO3)CC1` [compound 641, N-(2-(4-((1R,4R)-2-oxa-5-azabicyclo[2.2.1]heptane-5-yl)piperidine-1-yl)-4-methoxy-5-((6-((R)-3-(2,3,6-trifluorophenyl)isoxazolidine-2-yl)pyrimidine-4-yl)amino)phenyl)acrylamide]: “A (GI50 < 50 nM)”; for `C=CC(=O)Nc1cc(Nc2cc(N3OCC[C@@H]3c3cc(F)cc(F)c3)ncn2)c(OC)cc1N1CC[C@H](N2CCOCC2)C1` [Example 272, N-(5-((6-((R)-3-(3,5-difluorophenyl)isoxazolidine-2-yl)pyrimidine-4-yl)amino)-4-methoxy-2-((S)-3-morpholinopyrolidine-1-yl)phenyl)acrylamide]: “B (50 nM ≤ GI50 < 500 nM)”.
